Laboratory results as given in US9180163B2, “Parstatin peptides” (priority 2009, dated 2015).

Test system: HUVEC cells
Test: [3H]-thymidine incorporation (DNA synthesis)
Type: cell-based, human
Conditions: serum, bFGF or VEGF; comparison peptides 10 μM
Method: The ability of parstatin (1-41) to inhibit DNA synthesis of endothelial cells was assessed in thymidine incorporation assays. HUVEC cells were grown until 60-80% confluent in 24-well plates. Cells were treated with indicated peptides in serum-free medium containing either 0.5% BSA, or VEGF, or bFGF, or medium containing 5% FBS, or epidermal growth factor (EGF), or heparin-binging EGF (HB-EGF) for 18 hours. All cells were pulsed with 0.5 μCi/ml [3H]-thymidine (ICN Biomedicals Inc., Irvine Calif.) for additional 6 h. Radioactivity incorporated into DNA was determined in liquid scintillation counter.

Sequence: TRARRPESKATNATLDPR (listed as Homo sapiens) [parstatin (24-41), 24-41 (18 amino acids) of human parstatin, hydrophilic fragment]
- DNA synthesis in HUVEC cells: did not cause any significant effect
